According to patent US12611406B2, “Oxopiperazine derivatives for the treatment of cancer” (Inthera Bioscience AG, priority 2020, dated 2026):
Where two headings read alike, the source gives them in different places.

Assay: 28-day once weekly oral repeated-dose DRF study in cynomolgus monkeys (mesylate salt)
Assay type: in vivo
Conditions: for Cmax / Tmax / half-life / AUC(0-t): cynomolgus monkey, po; for AUC(0-t): read-out: AUC0-Tlast
Protocol: The objective of the study was to determine the TK profile of Compound 1 following 4 weekly oral administrations to cynomolgus monkeys and to assess reversibility of any changes following a 13-day recovery period.
Male and female cynomolgus monkeys (n=1/sex/group) were orally administered Compound 1 (mesylate salt) at dose levels of 30, 45, 60, or 90 mg/kg/administration for 4 consecutive doses on study days 1, 8, 15, and 22. The vehicle was 0.5% (w/v) methyl cellulose 400 in sterile water. For TK analysis blood samples were collected from each monkey on Days 1, 8, 15 and 22 at pre-dose, 15 min, 30 min, as well as 1, 2, 4, 6, 8, 12, and 24 hours post-dose. Non-compartmental analysis of Compound 1 blood concentrations data sets was performed using the Phoenix® WinNonlin® software (version 6.4).

[1] = female, blood, 45 mg/kg, F, Day 1
[2] = female, blood, 45 mg/kg, F, Day 22
[3] = female, blood, 60 mg/kg, F, Day 1
[4] = female, blood, 60 mg/kg, F, Day 22
[5] = female, blood, 90 mg/kg, F, Day 1
[6] = female, whole blood, 30 mg/kg, F, Day 1
[7] = female, whole blood, 30 mg/kg, F, Day 22
[8] = male, blood, 60 mg/kg, M, Day 1
[9] = male, blood, 60 mg/kg, M, Day 22
[10] = male, blood, 90 mg/kg, M, Day 1
[11] = male, whole blood, 30 mg/kg, M, Day 1
[12] = male, whole blood, 30 mg/kg, M, Day 22
[13] = male, whole blood, 45 mg/kg, M, Day 1
[14] = male, whole blood, 45 mg/kg, M, Day 22

What does the source list for CC(C)C[C@@H]1NCCN([C@@H](CC(C)C)C(=O)N2CCC3(C[C@@H]2C)OCC(CN2CCCC2)CO3)C1=O (stereo partly drawn) [Compound 1, (S)-3-isobutyl-1-((S)-4-methyl-1-((S)-8-methyl-3-(pyrrolidin-1-ylmethyl)-1,5-dioxa-9-azaspiro[5.5]undecan-9-yl)-1-oxopentan-2-yl)piperazin-2-one]?
Cmax [1]: 1460 ng/mL; Tmax [1]: 1.5 h; half-life [1]: 6.3 h; AUC(0-t) [1]: 4130 ng·h/mL; Cmax [2]: 1650 ng/mL; Tmax [2]: 1.5 h; half-life [2]: 5.8 h; AUC(0-t) [2]: 4810 ng·h/mL; Cmax [3]: 1830 ng/mL; Tmax [3]: 1 h; half-life [3]: 3.8 h; AUC(0-t) [3]: 7440 ng·h/mL; Cmax [4]: 4480 ng/mL; Tmax [4]: 2 h; half-life [4]: 4.4 h; AUC(0-t) [4]: 17400 ng·h/mL; Cmax [5]: 5030 ng/mL; Tmax [5]: 1.5 h; half-life [5]: 4.3 h; Cmax [6]: 296 ng/mL; Tmax [6]: 0.63 h; half-life [6]: 6.4 h; AUC(0-t) [6]: 894 ng·h/mL; Cmax [7]: 223 ng/mL; Tmax [7]: 1.25 h; half-life [7]: 5.5 h; AUC(0-t) [7]: 874 ng·h/mL; AUC(0-t) (female, whole blood, 90 mg/kg, F, Day 1): 18700 ng·h/mL; Cmax [8]: 449 ng/mL; Tmax [8]: 0.5 h; half-life [8]: 7.5 h; AUC(0-t) [8]: 1170 ng·h/mL; Cmax [9]: 2430 ng/mL; Tmax [9]: 1 h; half-life [9]: 5.7 h; AUC(0-t) [9]: 6710 ng·h/mL; Cmax [10]: 7300 ng/mL; Tmax [10]: 0.63 h; half-life [10]: 4.2 h; AUC(0-t) [10]: 22800 ng·h/mL; Cmax [11]: 229 ng/mL; Tmax [11]: 0.63 h; half-life [11]: 4.9 h; AUC(0-t) [11]: 721 ng·h/mL; Cmax [12]: 171 ng/mL; Tmax [12]: 2 h; half-life [12]: 2.6 h; AUC(0-t) [12]: 576 ng·h/mL; Cmax [13]: 1040 ng/mL; Tmax [13]: 1.5 h; half-life [13]: 7.6 h; AUC(0-t) [13]: 2950 ng·h/mL; Cmax [14]: 1350 ng/mL; Tmax [14]: 1.25 h; half-life [14]: 5.2 h; AUC(0-t) [14]: 3910 ng·h/mL; accumulation (once weekly for 4 weeks at doses up to 60 mg/kg): did not accumulate; tolerability (single oral administration of 90 mg/kg/adm): side effects in one animal; tolerability (weekly oral for 4 consecutive weeks at 30, 45, and 60 mg/kg/administration): well-tolerated
